Measured values published in publication PMC10218257, “Ionic Levothyroxine Formulations: Synthesis, Bioavailability, and Cytotoxicity Studies” (International Journal of Molecular Sciences, 2023).
Read-outs that look alike come from different tables or passages of the source.

What was measured:
[1] = Thermogravimetric analysis (TGA); type: physicochemical; details: 5 °C min^−1, argon
Description: Thermogravimetric analyses were performed over a temperature range from room temperature to 500 °C in a thermogravimetric analyzer from Setaram Labsys EVO (France) with a weighing precision of ±0.01%. Each run was conducted at a heating rate of 5 °C min^−1, under a highly pure argon atmosphere purged at 50 mL min^−1, with a mass sample between 8 and 10 mg.

[2] = Solubility assays in water, PBS and serum; type: physicochemical
Description: All the assays were carried out in triplicate. The average and standard deviation were calculated for the three replicates.

[3] = Permeability assays, Franz-type diffusion cell; parameters: Kd (partition coefficient): unit not given beside the values
From the text: In this context, a polyethersulphone (PES-U) membrane was selected for the determination of these two parameters. The diffusion coefficient is associated with the amount of API diffused with time. Therefore, the increase in the diffusion coefficient is proportional to the speed of the drug's diffusion through the membrane. Another aspect to consider is that the solubility of the drug is proportional to the driving force. […] The chosen membrane was polyethersulphone (PES-U) with 150 μm thickness and 0.45 μm pore size (Sartorius Stedim Biotech, Göttingen, Germany), which was placed between the two compartments and held with a stainless-steel clamp. The receptor compartment was filled with PBS solution, and air bubbles were removed. […] The determination of the API diffused was performed by HPLC. The assays were performed with three replicates. […] The cumulative mass of drug diffused to the receptor compartment was determined taking into consideration the replacement of aliquots with fresh medium and the dilution derived from the addition of fresh buffer. […] According to a derived solution of Fick's law of diffusion, it is possible to determine the diffusion coefficient, D, of the API through the membrane. […] Cf and Ci are the final and initial concentrations in the receptor compartment, and Ct is the concentration in the receptor compartment at time t.

[4] = system: L929 cells; test: Cell viability assay (MTS, CellTiter 96); type: cell-based; details: 24 h exposure, 50 and 75 ppm
Description: The biological effect of compounds was evaluated on the L929 cell line (DSMZ—German Collection of Microorganisms and Cell Culture GmbH). […] Cells only incubated with complete media were used as negative control and DMSO was chosen […]. […] The amount of formazan product was measured in a microplate reader (VICTOR Nivo TM, PerkinElmer, Waltham, MA, USA) at 490 nm, as absorbance is directly proportional to the number of viable cells in culture. Cell viability was expressed as the percentage of cells exposed to extracts vs. controls. Statistical analysis was performed using GraphPad Prism 7.00 software. A two-way ANOVA test was performed as well as Tukey’s multiple comparison test.

[5] = PES-U membrane, 37 °C, 50 mg L^−1, 8-hour assay

1-(2-Hydroxyethyl)-3-Methylimidazolium Levothyroxine [[C2OHMiM][T4]]
ΔTons, onset shifted to lower temperatures vs neat [Na][T4] [1]: ~ 30 °C
Solubility in PBS 37 °C ([2]; PBS, 37 °C): 324 ± 4 µg/mL
Solubility in Serum 37 °C ([2]; serum, 37 °C): 321 ± 7 µg/mL
Solubility in Water 25 °C ([2]; water, 25 °C): 277 ± 34 µg/mL
Solubility in Water 37 °C ([2]; water, 37 °C): 379 ± 22 µg/mL
Kd (partition coefficient) [3]: 0.45
Permeability [3]: 1.02 (×10^−5) cm s^−1

NC(Cc1cc(I)c(Oc2cc(I)c(O)c(I)c2)c(I)c1)C(=O)[O-].[Na+] (centres unmarked) [[Na][T4], Levothyroxine sodium salt pentahydrate, reference compound]
Cell viability / cytotoxicity [4]: without losing their viability
onset of the major weight decrease (degradation) [1]: 175 °C
Diffusion [3, 5]: 0.49 (×10^−6) cm^2 s^−1
Permeability [3, 5]: 2.04 (×10^−5) cm s^−1
